Reference: patent US20260210856A1, “CONJUGATED OLIGOELECTROLYTES WITH BORON-DIPYRROMETHENE CORES AND METHODS THEREOF” (National University of Singapore, priority 2022, published 2026)

Assays:
[1] = test system: HeLa cells; experiment: Time-dependent colocalization with organelle probes, confocal microscopy; type: cell-based
Method: (b) Confocal image of A549 cells stained with 1 μM COE-BYPhOC4. Confocal images of (c) A549 and (d) HeLa cells. Cells were prestained with COE-BYPhOC4 (red) for 4 hours and then stained with commercial plasma membrane dye CellMask Deep Red (blue and green, respectively) for 5 min. (e) Confocal images for time-dependent colocalization experiments. HeLa cells were stained with 1 μM COE-BYPhOC4 with different incubation times (2 h, 8 h, 24 h and 48 h). Cells were imaged in multiple channels to collect fluorescence signals from COE-BYPhOC4 and other commercial organelle dyes. Red: COE-BYPhOC4; the first column green: CellLight Early Endosome-GFP; the second column green: CellLight Late Endosome-GFP; the third column deep blue: CellLight Lysosomes-GFP; the fourth column sky blue: HCS LipidTOX™ Deep Red; the fifth column yellow: MitoTracker Deep Red. Scale bar: 5 μm.
Insights into the intracellular location of COE-BYPhOC4 at different time points were sought through colocalization experiments with a panel of common commercial organelle probes (CellLight Early Endosome-GFP, CellLight Late Endosome-GFP, CellLight Lysosomes-GFP, LipidTOX™ Deep Red, and MitoTracker Deep Red). To label the vesicles in the endocytic pathway with high specificity and avoid dye translocation associated with alkalinizing effects and equilibrium shifts after extended durations, we elected to use GFP-tagged markers that are definitive for each vesicle subtype, namely Rab5a, Rab7a, and Lamp-1 for early endosomes, late endosomes, and lysosomes respectively. […] Subsequently at 8 hours, the highest overlay can be observed from COEs and the late endosome marker. Prolonged incubation beyond this point further increased the degree of colocalization, from 0.73 at 8 hours to 0.95 at 48 h.

[2] = test system: HeLa cells; experiment: Membrane tension imaging during endocytosis, 2P-FLIM; type: cell-based
Method: We thus stained HeLa cells with COE-BYPhOC4 for different lengths of time and captured 2P-FLIM images of the cell state at specific intervals. For these studies, we correlated the time-dependent colocalization experiments with 2P-FLIM data to link τw with the identity of the vesicles. […] Time dependent colocalization with Rab5a allowed us a means of assigning the identities of the vesicles. At 2 hours, the blue and green vesicles in FLIM image were identified as early endosomes. Upon increasing staining time to 4 h, all COE-BYPhOC4 entered the cells with a further increase in τw, leading to a main yellow color. […] As previously analyzed from the colocalization images in FIG. 12, all the COEs resided exclusively within late endosomes at this point in time. […] This observation is potentially reflective of the different domains in endosomes.

[3] = test system: A549 cells; experiment: Confocal microscopy of stained cells; type: cell-based
Method: A549 cells were stained for 5 minutes with 0.75 μM COE-BYPhMe (red channel) before imaging and Hoechst 33342 (blue channel).
(§1) Our next objective was to study the cellular distribution of COE-BYPhOC4 series at different time points by conventional confocal microscopy.

[4] = Photophysical properties in PBS and in SUVs (POPC:POPG 85:15); type: physicochemical
Source text: The photophysical properties of the COE-BY series were studied in phosphate-buffered saline (PBS) and within model lipid bilayers. Small unilamellar vesicles (SUVs) composed of 1-palmitoyl-2-oleoyl-glycero-3-phosphocholine (POPC) and 1-palmitoyl-2-oleoyl-sn-glycero-3-phospho-(1′-rac-glycerol) sodium (POPG) (85:15, mol/mol) were used to simulate the lipid environment in cell membranes. The absorption spectra in PBS for all compounds feature a main peak at ~550 nm, reflecting the presence of the BODIPY subunit (FIG. 9A). One also observes a 5-10 nm red-shift of lowest energy absorption peak with increasing electron-withdrawing strength of the phenyl substituents.
Upon inserting into lipid bilayers, the fluorescence intensity increases over 27-fold for COE-BYPhMe, 30-fold for COE-BYPhOC4, 35-fold for COE-BYPhCN and 40-fold for COE-BYPhNO, relative to the values measured in PBS (FIG. 1c and FIG. S5). The increase in emission intensity reflects a transition to a more rigid and hydrophobic environment. Quantum yields increase to 32% for COE-BYPhMe, 60% for COE-BYPhOC4, 13% for COE-BYPhCN, and 10% for COE-BYPhNO in SUVs from 1% for COE-BYPhMe, 3% for COE-BYPhOC4, and 0.5% for COE-BYPhCN in PBS. The QY of COE-BYPhNO in PBS cannot be accurately determined by using a conventional fluorometer due to its weak fluorescence. The maximum emission wavelengths are redshifted from 587/589 nm (COE-BYPhMe/OC4) to 605/611 nm (COE-BYPhCN/NO) as a result of the decreased HOMO-LUMO energy gaps. […] Furthermore, the fluorescence spectra of COE-BYs intercalated within SUVs show a narrow band at wavelengths between 587 nm and 611 nm, with a full width half maximum (FWHM) linewidth of 52-68 nm (Table 1).

[5] = test system: MDCK cells; experiment: Confocal microscopy of stained cells; type: cell-based; settings: 1 μM, 10 minutes
Source text: as §1

FWHM ([4]; fluorescence spectra, intercalated within SUVs): 56 nm
ΦF in PBS ([4]; in PBS): 3%
λabs ([4]; in PBS): 540 nm
λem in PBS ([4]; in PBS): 602 nm
ΦF in SUVs ([4]; in SUVs): 60%
λem in SUVs ([4]; in SUVs): 589 nm
fluorescence intensity increase upon inserting into lipid bilayers ([4]; relative to the values measured in PBS): > 30 fold
SMILES: CCCCOc1ccc(C2=C3C(C)=C(c4ccc(/C=C/c5cc(OCCCCCC[N+](C)(C)C)c(OCCCCCC[N+](C)(C)C)c(OCCCCCC[N+](C)(C)C)c5)cc4)C(C)=[N+]3[B-](F)(F)n3c(C)c(-c4ccc(/C=C/c5cc(OCCCCCC[N+](C)(C)C)c(OCCCCCC[N+](C)(C)C)c(OCCCCCC[N+](C)(C)C)c5)cc4)c(C)c32)cc1.[I-].[I-].[I-].[I-].[I-].[I-] [COE-BYPhOC4]
degree of colocalization with late endosome marker ([1]; 1 μM, 8 hours): 0.73
degree of colocalization with late endosome marker ([1]; 1 μM, 48 h): 0.95
Pearson's correlation coefficient value (R) relative to GFP-tagged Rab5a (early endosome) ([1]; 1 μM, incubation 2 h): 0.71
colocalization with lipid droplets and mitochondria markers ([1]; all timepoints): poor colocalization with lipid droplets and mitochondria markers at all timepoints
τw ([2]; 8 to 24 h, red-orange vesicles): 2.7-3.0 ns
τw ([2]; 0.5 h, plasma membranes): ≈ 1.5 ns
τw ([2]; 0.5 h, regions beginning to be internalized): ≈ 1.0 ns
τw ([2]; vesicles taken up earlier (green)): 2.0-2.4 ns
staining pattern ([3]; A549, 1 μM, 10 minutes): strong fluorescence signals were observed on the plasma membranes
location of emission ([3]; incubation for 4 hours): predominantly intracellular emission
staining pattern [5]: strong fluorescence signals were observed on the plasma membranes
